Assay results from the NIST ThermoML archive (doi:10.1021/je0302001).

Assay: mn = molality of the nth substance listed, in mol/kg
Settings: for speed of sound / mass density / viscosity: 101.3 kPa, Liquid; for viscosity: Capillary tube (Ostwald / Ubbelohde) method; for surface tension liquid-gas: Ring tensiometer

O=[N+]([O-])[O-].O=[N+]([O-])[O-].[Zn+2] [nitric acid, zinc salt] + O
Settings	mass density [kg/m3]	speed of sound [m/s]	surface tension liquid-gas [mN/m]	viscosity [mPa·s]
303.15 K, m1 = 2.145	–	1622.9	–	–
303.15 K, m1 = 2.29	–	1632.6	–	–
303.15 K, m1 = 2.292	–	1630.1	–	–
303.15 K, m1 = 2.344	–	1634.7	–	–
303.15 K, m1 = 2.91	–	1664	–	–
303.15 K, m1 = 3.472	–	1691.2	–	–
303.15 K, m1 = 4.075	–	1714.1	–	–
303.15 K, m1 = 4.817	–	1739.4	–	–
303.15 K, m1 = 5.224	–	1748.1	–	–
303.15 K, m1 = 5.797	–	1760.4	–	–
303.15 K, m1 = 6.34	–	1768.2	–	–
303.15 K, m1 = 6.89	–	1772.4	–	–
303.15 K, m1 = 7.349	–	1774	–	–
303.2 K, m1 = 6.89	1705.2	–	–	–
303.25 K, m1 = 5.8	1629.7	–	–	–
303.65 K, m1 = 0.6111	1084.7	–	–	–
303.65 K, m1 = 1.906	1255.3	–	–	–
303.7 K, m1 = 0.3388	1045.4	–	–	–
303.75 K, m1 = 1.113	1154	–	–	–
303.75 K, m1 = 1.258	1173.4	–	–	–
303.75 K, m1 = 4.075	1486.4	–	–	–
303.85 K, m1 = 4.817	1551.9	–	–	–
303.95 K, m1 = 2.29	1300.6	–	–	–
304 K, m1 = 3.472	1428.2	–	–	–
304.15 K, m1 = 5.224	1584.8	–	–	–
304.2 K, m1 = 7.349	1732.6	–	–	–
304.3 K, m1 = 1.551	1210.3	–	–	–
304.3 K, m1 = 2.344	1306.7	–	–	–
304.35 K, m1 = 0.6405	1088.5	–	–	–
304.45 K, m1 = 2.292	1300.6	–	–	–
304.85 K, m1 = 0.1329	1014.5	–	–	–
304.85 K, m1 = 2.91	1369.1	–	–	–
304.85 K, m1 = 6.89	1703.4	–	–	–
305.1 K, m1 = 5.8	1627.9	–	–	–
305.4 K, m1 = 2.145	1282.8	–	–	–
305.45 K, m1 = 6.34	1666.3	–	–	–
305.65 K, m1 = 0.0875	1007.5	–	–	–
305.65 K, m1 = 4.075	1484.9	–	–	–
305.7 K, m1 = 1.906	1254.1	–	–	–
306.1 K, m1 = 1.258	1172	–	–	–
306.15 K, m1 = 2.29	1299.2	–	–	–
306.25 K, m1 = 0.2466	1031	–	–	–
306.25 K, m1 = 1.113	1152.7	–	–	–
306.3 K, m1 = 2.344	1305.3	–	–	–
306.35 K, m1 = 0.6111	1083.6	–	–	–
306.35 K, m1 = 2.292	1299.4	–	–	–
306.55 K, m1 = 1.551	1209.4	–	–	–
306.6 K, m1 = 0.3388	1044.3	–	–	–
306.75 K, m1 = 2.91	1367.8	–	–	–
307.05 K, m1 = 0.6405	1087.4	–	–	–
307.35 K, m1 = 2.145	1281.5	–	–	–
307.5 K, m1 = 4.817	1548.6	–	–	–
307.55 K, m1 = 4.075	1483.4	–	–	–
307.55 K, m1 = 7.349	1729.2	–	–	–
307.75 K, m1 = 3.472	1425.1	–	–	–
307.75 K, m1 = 5.224	1581.5	–	–	–
307.85 K, m1 = 0.1329	1013.4	–	–	–
307.9 K, m1 = 1.906	1252.7	–	–	–
308.15 K, m1 = 0.0875	–	1525.6	–	–
308.15 K, m1 = 0.1329	–	1523.4	–	0.76
308.15 K, m1 = 0.2466	–	1527.9	–	0.787
308.15 K, m1 = 0.3388	–	1532.5	–	0.809
308.15 K, m1 = 0.6111	–	1543.7	–	0.884
308.15 K, m1 = 0.6405	–	1544.7	–	0.892
308.15 K, m1 = 1.113	–	1566.6	–	1.044
308.15 K, m1 = 1.258	–	1576.6	–	1.107
308.15 K, m1 = 1.551	–	1592.5	–	1.216
308.15 K, m1 = 1.906	–	1612.5	–	1.405
308.15 K, m1 = 2.145	–	1624.2	–	1.548
308.15 K, m1 = 2.29	–	1632.3	–	1.622
308.15 K, m1 = 2.292	–	1630.7	–	–
308.15 K, m1 = 2.344	–	1635	–	1.645
308.15 K, m1 = 2.91	–	1662.2	–	2.035
308.15 K, m1 = 3.472	–	1687	–	2.554
308.15 K, m1 = 4.075	–	1708.9	–	3.149
308.15 K, m1 = 4.817	–	1733.1	–	4.24
308.15 K, m1 = 5.224	–	1740.5	–	4.878
308.15 K, m1 = 5.797	–	1751.6	–	6.183
308.15 K, m1 = 6.34	–	1757.7	–	7.469
308.15 K, m1 = 6.89	–	1762.2	–	9.274
308.15 K, m1 = 7.349	–	1762.6	–	10.94
308.25 K, m1 = 2.344	1303.9	–	–	–
308.3 K, m1 = 1.258	1170.8	–	–	–
308.35 K, m1 = 1.113	1151.6	–	–	–
308.35 K, m1 = 6.89	1699.9	–	–	–
308.6 K, m1 = 1.551	1208.2	–	–	–
308.75 K, m1 = 0.0875	1006.4	–	–	–
308.75 K, m1 = 5.8	1624.4	–	–	–
308.85 K, m1 = 2.91	1366.3	–	–	–
309.05 K, m1 = 0.6111	1082.4	–	–	–
309.1 K, m1 = 6.34	1662.7	–	–	–
309.15 K, m1 = 0.2466	1029.9	–	–	–
309.35 K, m1 = 4.817	1546.9	–	–	–
309.4 K, m1 = 0.3388	1043.2	–	–	–
309.45 K, m1 = 0.6405	1086.3	–	–	–
309.45 K, m1 = 2.145	1280.1	–	–	–
309.55 K, m1 = 3.472	1423.6	–	–	–
309.55 K, m1 = 5.224	1579.9	–	–	–
310.1 K, m1 = 2.29	1296.5	–	–	–
310.35 K, m1 = 2.344	1302.6	–	–	–
310.45 K, m1 = 1.258	1169.6	–	–	–
310.45 K, m1 = 2.292	1296.6	–	–	–
310.45 K, m1 = 5.8	1622.9	–	–	–
310.7 K, m1 = 1.113	1150.3	–	–	–
310.7 K, m1 = 2.91	1364.9	–	–	–
310.75 K, m1 = 0.1329	1012.3	–	–	–
310.75 K, m1 = 6.34	1661.1	–	–	–
310.8 K, m1 = 7.764	1749.7	–	–	–
310.85 K, m1 = 1.551	1206.9	–	–	–
310.95 K, m1 = 7.349	1725.6	–	–	–
311.15 K, m1 = 4.817	1545.4	–	–	–
311.25 K, m1 = 5.224	1578.2	–	–	–
311.35 K, m1 = 0.6111	1081.4	–	–	–
311.35 K, m1 = 3.472	1422.1	–	–	–
311.35 K, m1 = 4.075	1480.4	–	–	–
311.4 K, m1 = 2.145	1278.8	–	–	–
311.5 K, m1 = 0.0875	1005.4	–	–	–
311.7 K, m1 = 6.89	1696.5	–	–	–
311.85 K, m1 = 0.2466	1028.8	–	–	–
311.85 K, m1 = 0.3388	1042.2	–	–	–
311.9 K, m1 = 0.6405	1085.1	–	–	–
311.9 K, m1 = 1.906	1250.1	–	–	–
312 K, m1 = 2.29	1295.1	–	–	–
312.25 K, m1 = 5.8	1621	–	–	–
312.35 K, m1 = 2.292	1295.2	–	–	–
312.55 K, m1 = 6.34	1659.2	–	–	–
312.7 K, m1 = 1.258	1168.4	–	–	–
312.85 K, m1 = 1.113	1149.1	–	–	–
312.95 K, m1 = 1.551	1205.6	–	–	–
313.05 K, m1 = 5.224	1576.6	–	–	–
313.15 K, m1 = 0.0875	–	1533.4	–	–
313.15 K, m1 = 0.1329	–	1531.7	–	0.691
313.15 K, m1 = 0.2263	–	–	70.59	–
313.15 K, m1 = 0.2466	–	1535.7	–	0.716
313.15 K, m1 = 0.334	–	–	70.83	–
313.15 K, m1 = 0.3388	–	–	–	0.739
313.15 K, m1 = 0.6111	–	–	–	0.805
313.15 K, m1 = 0.6198	–	–	71.5	–
313.15 K, m1 = 0.6405	–	–	–	0.813
313.15 K, m1 = 0.8228	–	–	72.2	–
313.15 K, m1 = 1.113	–	–	–	0.952
313.15 K, m1 = 1.258	–	–	–	1.01
313.15 K, m1 = 1.259	–	–	73.37	–
313.15 K, m1 = 1.549	–	–	74.1	–
313.15 K, m1 = 1.551	–	–	–	1.106
313.15 K, m1 = 1.818	–	–	74.61	–
313.15 K, m1 = 1.906	–	–	–	1.277
313.15 K, m1 = 2.145	–	–	–	1.408
313.15 K, m1 = 2.222	–	–	76.05	–
313.15 K, m1 = 2.29	–	–	–	1.475
313.15 K, m1 = 2.344	–	–	–	1.495
313.15 K, m1 = 2.526	–	–	77.02	–
313.15 K, m1 = 2.721	–	–	77.55	–
313.15 K, m1 = 2.91	–	–	–	1.843
313.15 K, m1 = 3.426	–	–	79.09	–
313.15 K, m1 = 3.472	–	–	–	2.305
313.15 K, m1 = 4.011	–	–	80.79	–
313.15 K, m1 = 4.075	–	–	–	2.868
313.15 K, m1 = 4.231	–	–	81.05	–
313.15 K, m1 = 4.817	–	–	–	3.774
313.15 K, m1 = 5.133	–	–	83.04	–
313.15 K, m1 = 5.224	–	–	–	4.322
313.15 K, m1 = 5.797	–	–	–	5.432
313.15 K, m1 = 6.245	–	–	84.64	–
313.15 K, m1 = 6.34	–	–	–	6.509
313.15 K, m1 = 6.89	–	–	–	7.997
313.15 K, m1 = 7.349	–	–	–	9.383
